Values quoted from earlier work as cited in article PMC11528414 (Journal of the American Chemical Society, 2024).

Tested on: PANC-1
Details: read-out: Reported Anticancer Activity PANC-1 (IC50); reported values

C[N+]1=C2C=C(NCCc3ccc(O)cc3)C(=O)c3[nH]cc(c32)CC1 [makaluvamine J]
IC50: 54 nM
